Counter-ions that a name gives are not always drawn.
Legend:
papain-induced arthritis [1] = assay: Papain-induced unilateral arthritis model, intramuscular administration (volume of synovial fluid); assay type: in vivo, Japanese white rabbits (female); conditions: for quantity of synovial fluid (FIG. 5, result in words): 10 rabbits per group; for Volume of Synovial Fluid: 7 days, control 722, normal 433
Protocol: (§1) The anti-inflammatory effect of the keratan sulfate oligosaccharide with rabbits of the papain-induced arthritis model was examined using the volume of synovial fluid as an indication.
(§2) Seven days after the injection, the blood was drawn from the auricular artery, and plasma containing heparin was separated. After drawing the blood, the rabbits were anatomized and the both knee joint were separated. The articular cavity was washed with 2 ml of saline three times to recover the synovial fluid. The calcium concentrations in the plasma and the recovered synovial fluid were determined, and the volume of synovial fluid was calculated from the following formula.
(§3) Volume of Synovial Fluid (ul/articulation)=Amount of Calcium in Recovered
(§4) Synovial Fluid (μg/articulation)/Concentration of Calcium in Plasma
Into the articular cavity of left joint of Japanese white rabbits (female) of 3 kg weight, 150 μl of the saline solution of papain (1%) was injected, and the right joint was not treated to prepare the unilateral arthritis model. One day after injecting papain, 150 μl of the PBS solution of the purified keratan sulfate tetrasaccharide (I) (2%, 1%, and 0.5% solution; 1.0 mg/kg, 0.5 mg/kg, and 0.25 mg/kg, respectively) which was prepared in Example 1 was injected into the hip muscle of the left side (hereinafter referred to as "the keratan sulfate tetrasaccharide (I) administered group"). As the control, 150 μl of PBS was injected to the arthritis model instead of the PBS solution of the keratan sulfate tetrasaccharide (I) and hereinafter these rabbits are referred to as "the control group". And the normal rabbits not subjected to the papain injection (hereinafter referred to as "the normal group") were also examined in the same manner hereinafter. Seven days after the injection, the volume of synovial fluid was calculated in the same manner as in (1-1).
The examination was performed in the same manner as in (1-3) except for using 150 μl of the PBS solution of the purified keratan sulfate tetrasaccharide (I), the keratan sulfate pentasaccharide (II), and the keratan sulfate disaccharide (III) (1% solution; 0.5 mg/kg) which were prepared in Example 1. In the figure, *, **, and *** represent that they have the significant difference with p<0.05, p<0.01, and p<0.001, respectively. And in each group, 10 rabbits were used for the examination.

papain-induced arthritis [2] = assay: Papain-induced bilateral arthritis model, intra-articular administration (volume of synovial fluid); assay type: in vivo, Japanese white rabbits (female); conditions: for Volume of Synovial Fluid: 7 days, n = 8, p < 0.05, control 729, normal 437
Protocol: as §1
Into the articular cavity of both knee joint of Japanese white rabbits (female) of 3 kg weight, 150 μl of the saline solution of papain (1%) was injected to prepare the arthritis model. One day after injecting papain, 150 μl of the PBS solution of the purified keratan sulfate tetrasaccharide (I) (1% solution; 1.5 mg/joint) which was prepared in Example 1 was injected into the articular cavity of the left joint (hereinafter referred to as "the keratan sulfate tetrasaccharide (I) administered foot"), and 150 μl of PBS was injected into that of the right joint (hereinafter referred to as "the keratan sulfate tetrasaccharide (I) unadministered foot"). Hereinafter the rabbits subjected to administration of the keratan sulfate tetrasaccharide (I) are referred to as "the administered group". And the rabbits subjected to the papain injection only (hereinafter referred to as the control group) and the normal rabbits not subjected to the papain injection (hereinafter referred to as the normal group) were also examined in the same manner hereinafter.
as §2, §3, §4
In the table, "n" represents the number of rabbits in each group used in the experiment.

[3] = 0.5 mg/kg intramuscular, unilateral model

| SMILES | quantity of synovial fluid (FIG. 5, result in words) (papain-induced arthritis [1]; [3]) | Volume of Synovial Fluid (papain-induced arthritis [2]; Administered Foot, 1.5 mg/joint intra-articular, SD 147) [µL] | Volume of Synovial Fluid (papain-induced arthritis [2]; Unadministered Foot, 1.5 mg in other joint, SD 130) [µL] | volume of synovial fluid (result in words) (papain-induced arthritis [2]; intra-articular, bilateral model) | Volume of Synovial Fluid (papain-induced arthritis [1]; 0.25 mg/kg intramuscular, n = 9, SD 70.6, p < 0.05) [µL] | Volume of Synovial Fluid (papain-induced arthritis [1]; 0.5 mg/kg intramuscular, n = 10, SD 68.9, p < 0.01) [µL] | Volume of Synovial Fluid (papain-induced arthritis [1]; 1.0 mg/kg intramuscular, n = 9, SD 53.1, p < 0.01) [µL] | volume of synovial fluid (result in words) (papain-induced arthritis [1]; 0.25, 0.5, 1.0 mg/kg intramuscular, unilateral model) |
| --- | --- | --- | --- | --- | --- | --- | --- | --- |
| CC(=O)N[C@H]1C(O)O[C@H](COS(=O)(=O)O)[C@@H](O[C@@H]2O[C@H](COS(=O)(=O)O)[C@H](O)[C@H](O)[C@H]2O)[C@@H]1O (stereo partly drawn) [keratan sulfate disaccharide (III), Gal(6S)β1-4GlcNAc(6S)] | significantly less than that in the control group | – | – | – | – | – | – | – |
| CC(=O)N[C@H]1[C@H](O[C@H]2[C@@H](O)[C@@H](COS(=O)(=O)O)O[C@@H](O[C@H]3[C@H](O)[C@@H](NC(C)=O)C(O)O[C@@H]3COS(=O)(=O)O)[C@@H]2O)O[C@H](COS(=O)(=O)O)[C@@H](O[C@@H]2O[C@H](COS(=O)(=O)O)[C@H](O)[C@H](O)[C@H]2O)[C@@H]1O (stereo partly drawn) [keratan sulfate tetrasaccharide (I), Gal(6S)β1-4GlcNAc(6S)β1-3Gal(6S)β1-4GlcNAc(6S)] | significantly less than that in the control group | 530 | 537 | significantly less than that in the control group | 619 | 597 | 528 | significantly less than that in the control group |
